# Earlier results as cited in patent publication EP0305400B1, “A COMPOSITION HAVING REDUCED NEPHROTOXICITY COMPRISING A FATTY ACID CONTAINING COMPONENT AND CYCLOSPORINE” (BRIGHAM AND WOMEN'S HOSPITAL, priority 1986, dated 1987).
# Tested on: Tx synthetase
# Conditions: rats treated with CSA
smiles,measurement,value
"Cc1c(Cn2ccnc2)c2ccccc2n1CCC(=O)O [UK-38,485]",glomerular filtration rate (GFR),improved
same,urinary TxB2 levels,comparable to control levels
